According to ChEMBL document CHEMBL5316313, “Discovery of Novel 3-Phenylpiperidine Derivatives Targeting the β-Catenin/B-Cell Lymphoma 9 Interaction as a Single Agent and in Combination with the Anti-PD-1 Antibody for the Treatment of Colorectal Cancer” (J Med Chem, 2023):

What was measured:
[1] = target: T1, beta-catenin-B-cell lymphoma 9 protein complex (Homo sapiens, UniProt P35222); assay: Inhibition of FLAG tagged human beta-catenin/FLAG-tagged human BCL9 HD2 (343 to 396 residues) expressed in Escherichia coli BL21 protein-protein interaction assessed as inhibition constant by ELISA
T1 sequence (P35222 whole entry): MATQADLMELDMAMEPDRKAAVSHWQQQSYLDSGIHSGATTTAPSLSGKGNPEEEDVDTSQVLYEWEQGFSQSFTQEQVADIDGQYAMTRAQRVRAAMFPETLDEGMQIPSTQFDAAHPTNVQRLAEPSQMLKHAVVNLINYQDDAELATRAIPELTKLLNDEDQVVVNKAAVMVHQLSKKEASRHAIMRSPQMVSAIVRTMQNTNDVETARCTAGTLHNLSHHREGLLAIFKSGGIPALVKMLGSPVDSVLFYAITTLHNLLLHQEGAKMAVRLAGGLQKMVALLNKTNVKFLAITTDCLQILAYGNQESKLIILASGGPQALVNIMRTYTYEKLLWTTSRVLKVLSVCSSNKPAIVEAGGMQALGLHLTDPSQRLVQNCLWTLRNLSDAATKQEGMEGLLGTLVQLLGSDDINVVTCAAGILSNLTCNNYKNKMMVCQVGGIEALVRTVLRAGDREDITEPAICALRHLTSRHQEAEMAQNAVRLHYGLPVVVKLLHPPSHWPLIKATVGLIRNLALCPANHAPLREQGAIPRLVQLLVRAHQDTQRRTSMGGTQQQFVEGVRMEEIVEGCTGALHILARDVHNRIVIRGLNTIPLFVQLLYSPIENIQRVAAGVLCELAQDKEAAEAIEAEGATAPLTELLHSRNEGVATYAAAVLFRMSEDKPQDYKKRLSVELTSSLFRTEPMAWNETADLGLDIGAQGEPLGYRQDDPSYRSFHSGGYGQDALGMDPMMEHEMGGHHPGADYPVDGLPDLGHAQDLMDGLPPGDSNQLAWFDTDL
T1 sequence (O00512 whole entry): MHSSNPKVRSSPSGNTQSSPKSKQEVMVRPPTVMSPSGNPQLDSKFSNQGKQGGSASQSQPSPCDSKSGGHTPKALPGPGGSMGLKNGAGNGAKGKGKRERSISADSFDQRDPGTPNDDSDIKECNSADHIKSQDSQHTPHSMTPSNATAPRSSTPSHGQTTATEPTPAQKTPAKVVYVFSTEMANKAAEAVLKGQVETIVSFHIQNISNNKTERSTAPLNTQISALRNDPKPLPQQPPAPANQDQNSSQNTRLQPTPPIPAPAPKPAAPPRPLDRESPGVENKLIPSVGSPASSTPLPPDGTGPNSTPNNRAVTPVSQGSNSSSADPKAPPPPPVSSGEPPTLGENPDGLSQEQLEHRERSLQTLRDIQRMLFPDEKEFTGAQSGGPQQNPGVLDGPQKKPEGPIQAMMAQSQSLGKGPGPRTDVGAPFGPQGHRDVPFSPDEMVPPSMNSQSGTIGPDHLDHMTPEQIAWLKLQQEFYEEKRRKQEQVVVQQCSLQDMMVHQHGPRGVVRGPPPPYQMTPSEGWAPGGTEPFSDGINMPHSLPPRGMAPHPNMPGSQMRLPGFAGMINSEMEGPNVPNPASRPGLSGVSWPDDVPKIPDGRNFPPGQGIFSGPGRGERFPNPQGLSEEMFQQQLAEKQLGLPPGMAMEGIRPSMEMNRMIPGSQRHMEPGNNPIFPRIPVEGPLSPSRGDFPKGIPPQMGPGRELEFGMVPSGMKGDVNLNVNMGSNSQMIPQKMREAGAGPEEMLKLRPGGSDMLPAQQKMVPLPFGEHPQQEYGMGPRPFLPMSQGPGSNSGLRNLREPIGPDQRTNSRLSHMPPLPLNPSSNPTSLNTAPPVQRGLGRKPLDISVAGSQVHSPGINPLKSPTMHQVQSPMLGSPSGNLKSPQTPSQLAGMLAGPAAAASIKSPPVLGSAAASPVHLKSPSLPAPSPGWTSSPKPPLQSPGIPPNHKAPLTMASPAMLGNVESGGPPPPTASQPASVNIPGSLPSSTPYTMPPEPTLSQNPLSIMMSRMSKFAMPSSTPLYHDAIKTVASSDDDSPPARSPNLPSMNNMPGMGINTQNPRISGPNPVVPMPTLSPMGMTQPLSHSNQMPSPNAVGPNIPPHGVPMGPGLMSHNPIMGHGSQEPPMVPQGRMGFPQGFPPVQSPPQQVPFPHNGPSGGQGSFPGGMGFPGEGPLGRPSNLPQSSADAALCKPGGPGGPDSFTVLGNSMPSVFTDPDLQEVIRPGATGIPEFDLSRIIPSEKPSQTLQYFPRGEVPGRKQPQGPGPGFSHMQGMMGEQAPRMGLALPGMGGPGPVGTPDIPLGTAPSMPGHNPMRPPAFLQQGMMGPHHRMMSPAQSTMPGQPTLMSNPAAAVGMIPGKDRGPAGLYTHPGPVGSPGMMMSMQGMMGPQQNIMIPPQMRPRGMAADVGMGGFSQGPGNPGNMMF

[2] = Microsomal stability in mouse liver microsomes assessed as half life at […] and measured upto 60 mins by LC-MS/MS analysis; type: ADME, Microsome
[3] = Microsomal stability in mouse liver microsomes assessed as intrinsic clearance at […] and measured upto 60 mins by LC-MS/MS analysis; type: ADME, Microsome; settings: read-out: CLH
[4] = Microsomal stability in human liver microsomes assessed as half life at […] and measured upto 60 mins by LC-MS/MS analysis; type: ADME, Microsome
[5] = Microsomal stability in human liver microsomes assessed as intrinsic clearance at […] and measured upto 60 mins by LC-MS/MS analysis; type: ADME, Microsome; settings: read-out: CLH
[6] = target: T1, beta-catenin-B-cell lymphoma 9 protein complex; assay: Inhibition of beta-catenin (unknown origin)/human BCL9 (350 to 375 residues) protein-protein interaction assessed as inhibition constant by AlphaScreen assay; type: protein-complex assay
[7] = target: T1, beta-catenin-B-cell lymphoma 9 protein complex; assay: Inhibition of beta-catenin (unknown origin)/BCL9 (unknown origin) protein-protein interaction assessed as inhibition constant by AlphaScreen assay; type: protein-complex assay
[8] = target: T1, beta-catenin-B-cell lymphoma 9 protein complex; assay: Inhibition of full-length recombinant beta-catenin (1 to 781 residues) (unknown origin)/N-terminal biotinylated BCL9-HD2 (unknown origin) protein-protein interaction assessed as inhibition constant incubated for 90 mins by AlphaScreen assay; type: protein-complex assay
[9] = target: T1, beta-catenin-B-cell lymphoma 9 protein complex; assay: Inhibition of N-terminal His6-tagged full-length recombinant beta-catenin (1 to 781 residues) (unknown origin) expressed in Escherichia coli BL21 DE3/N-terminal FAM tagged BCL9 HD2(350 to 375 residues) (unknown origin) protein-protein interaction assessed as inhibition constant incubated for 3 hrs by competitive fluorescence polarization assay
[10] = target: T1, beta-catenin-B-cell lymphoma 9 protein complex; assay: Inhibition of beta-catenin/BCL9 protein-protein interaction in Wnt-dependent human HCT-116 cells assessed as reduction in Axin2 expression level by qRT-PCR assay; type: cell-based

half-life [2] [min] | microsomal CLint [3] [µL/min/mg] | half-life [4] [min] | microsomal CLint [5] [µL/min/mg] | IC50 [9] [nM] | IC50 [10] [nM] | Compound | also measured
– | – | – | – | – | – | CC(C)c1cc2c(c(O)c1O)[C@@]1(C(=O)O)CCCC(C)(C)[C@@H]1CC2 [CARNOSIC ACID] | Ki [1]: 3300 nM
14.8 | 93.4 | 69.3 | 20 | – | – | CC(C)c1ccc(-c2cccc(S(=O)(=O)N3CCC[C@@H](c4cccc(OC(C)(C)C(=O)NS(=O)(=O)c5ccc(C(F)(F)F)cc5)c4)C3)c2)cc1 | –
37.7 | 36.8 | 21.8 | 63.6 | – | – | CC(C)c1ccc(-c2cccc(S(=O)(=O)N3CCC[C@H](c4cccc(OC(C)(C)C(=O)NS(=O)(=O)c5ccc(C(F)(F)F)cc5)c4)C3)c2)cc1 | –
5.75 | 241 | 6.17 | 225 | – | – | CC(C)c1ccc(-c2cccc(S(=O)(=O)N3CCCC(c4cccc(OC(C)(C)C(=O)NS(=O)(=O)c5cccs5)c4)C3)c2)cc1 (stereo unspecified) | –
– | – | – | – | – | – | O=C(Nc1ccc(O[C@@H]2CCNC2)c(-c2ccc(F)cc2)c1)c1ccc(O[C@H]2CCNC2)c(-c2ccc(F)c(F)c2)c1 | Ki [6]: 2100 nM
– | – | – | – | – | – | O=C(Nc1ccc(O[C@H]2CCNC2)c(-c2cccc(-c3nn[nH]n3)c2)c1)c1ccc(O[C@H]2CCNC2)c(-c2ccc(F)c(F)c2)c1 | Ki [7]: 470 nM
– | – | – | – | – | – | CC1CCCN(CCCNC(=O)C2=Cc3sc4c(c3CS2)CCCC4)C1 (stereo unspecified) | Ki [8]: 9000 nM
19.8 | 70 | 8.67 | 160 | 1180 | 1100 | CC(C)c1ccc(-c2cccc(S(=O)(=O)N3CCCC(c4cccc(OC(C)(C)C(=O)NS(=O)(=O)c5ccccc5)c4)C3)c2)cc1 (stereo unspecified) | –
– | – | – | – | 3760 | 10000 | CC(C)c1ccc(-c2cccc(S(=O)(=O)N3CCCC(c4cccc(OC(C)(C)C(=O)NCc5ccccc5)c4)C3)c2)cc1 (stereo unspecified) | –
– | – | – | – | 1860 | 1490 | CC(C)c1ccc(-c2cccc(S(=O)(=O)N3CCCC(c4cccc(OC(C)(C)C(=O)NS(=O)(=O)c5ccc(C#N)cc5)c4)C3)c2)cc1 (stereo unspecified) | –
